These results are taken from patent EP4643861A1, “A HALOGENATED-HETEROARYL KINASE INHBITOR FOR TREATING SOFT TISSUE SARCOMA AND VASCULAR TUMORS” (iOmx Therapeutics AG, priority 2024, dated 2025).

Data set [1] relates to Human Patient-Derived Xenograft (PDX) Angiosarcoma. The data set is described as follows: E9 monotherapy efficacy in Human Patient-Derived Xenograft (PDX) Angiosarcoma model. The format is in vivo, immuno-deficient NOD scid gamma (NOG) mice. Particulars: BID × 23, termination at day 23. An excerpt: This Angiosarcoma PDX model was used for preclinical evaluation of E9 in Angiosarcoma due to the retention of tumor heterogeneity and biological characteristics. Additionally, due to the rare indication, no murine syngeneic or human xenograft models are available.
Briefly, immuno-deficient NOD scid gamma (NOG) mice, were housed in a controlled environment conducive to tumor growth. Human PDX tumor samples, obtained from a patient with Angiosarcoma (Epitheloid AS […]), were implanted subcutaneously into the mice. Tumor growth was monitored using non-invasive caliper method and was calculated by the following formula: volume = (width)2 × (length)/2. Animals were randomized into treatment groups at a tumor volume (TV) of ~160mm3 (Table 1). Treatment started after randomization twice daily until termination at day 23 when Vehicle animals reached termination criteria due to TV. Table 1: Example treatment groups.
A general note: In xenograft studies the graft and the host belong to different species.

Data set [2] deals with secondary radiation-induced cutaneous angiosarcoma. The data set is described as follows: Treatment of a secondary angiosarcoma in a patient (dose escalation study). Format: in vivo, human. The method, then:
Clinical responder patient suffered from a secondary radiation-induced cutaneous angiosarcoma. The patient, who previously received radiotherapy in context of a treatment of breast cancer, developed secondary angiosarcoma. The angiosarcoma was treated with chemotherapy including paclitaxel, doxorubicin and cyclophosphamide the patient developed treatment resistance to the chemotherapy. In the following the patient received E9 in context of a dose excalation study in which E9 was administered orally every 12h (i.e. twice daily) for 28 days per treatment cycle. E9 daily doses were escalated from 10mg to 30mg and finally 60mg E9 during the then following continuous treatment.

Consider `Cc1nc(Nc2ncc(C(=O)Nc3c(CF)csc3Cl)s2)cc(N2CCN(C)CC2)n1` [E9, N-(2-chloro-4-(fluoromethyl)thiophen-3-yl)-2-((2-methyl-6-(4-methylpiperazin-1-yl)pyrimidin-4-yl)amino)thiazole-5-carboxamide], for which the “tumor growth inhibition (TGI)” value in data set [1] (25mg/kg E9, p.o.) is 55%. Also, in data set [1] (50 mg/kg E9, p.o.), the “tumor size at termination compared to treatment start” value was “tumor regression”. Besides, in data set [2] (further treatment with 60mg daily E9), the “duration of maintained near-complete response” value is “over 10 months”. In addition, the tolerability result in data set [2] (orally every 12h, 28 days per cycle, daily doses escalated from 10mg to 30mg and finally 60mg) is given as “well tolerated”. For the same compound, in data set [2] (patient resistant to paclitaxel, doxorubicin and cyclophosphamide, E9 orally twice daily), the “clinical response (reduction of cutaneous lesions)” value was “near-complete response”.
